Reference: patent publication US20130109682A1, “CYCLIC ETHER COMPOUNDS USEFUL AS KINASE INHIBITORS” (NOVARTIS AG, priority 2010, published 2013)
pIC50: −log10 of the molar value. Read-outs that look alike come from different tables or passages of the source.

What was measured:
hERG = target: T1, hERG (Homo sapiens, UniProt Q12809); assay: hERG binding assay ([3H] dofetilide displacement); details: read-out: HERGdof IC50
T1 construct: host or cells: crude membrane suspension
Protocol: Compounds of the invention were pipetted into each well of pre-wet 96-well Millipore GF/C filter plates (#MSFCN6B50): 119 μl assay buffer, 1 μl test compound in 100% DMSO (or 100% DMSO only for total binding), 40 μl [3H] dofetilide (12.5 nM, final concentration 2.5 nM; Novartis radioisotope laboratory, East Hanover, N.J., USA, specific activity 15-45 Ci/mmol); 40 μl crude membrane suspension (ca. 15 μg protein). The final concentration of DMSO during the incubation was 0.5%. Incubations were performed at room temperature for 90 min. Non-specific binding (NSB) was defined as the binding remaining in the presence of 25 μM terfenadine (Sigma T9652). The incubations were terminated by rapid filtration on a Millipore filtration manifold, followed by three washes of 200 μA ice-cold assay buffer. The plates were left to dry overnight before adding 40 μA scintillant (MicroScint-20). The plates were then sealed (Sealing Tape SI, Nunc 236366) and read in a Wallac MicroBeta Trilux beta-counter for 1.5 min per well. Compounds were tested as 9-concentration response curves in duplicate, ranging from 30 μM to 3 nM in 1:3 dilution steps. Dilution curves were prepared in 100% DMSO. The reference compound (terfenadine) was tested as an eight-concentration response curve, ranging from 10 μM to 0.6 nM in 1:4 dilution steps.

cABLT315 kinase = cABLT315 kinase (Homo sapiens, UniProt P00519); assay: cABLT315 kinase Caliper assay; assay type: biochemical
Protocol: PKCα and cABLT315 Kinase Caliper Assays
Assays were performed in 384 well microtiter plates. Each assay plate contained 8-point serial dilutions for test compounds, as well as two 16-point serial dilutions of staurosporine as reference compound, plus 16 high- and 16 low controls. Liquid handling and incubation steps were done on a Thermo CatX workstation equipped with a Innovadyne Nanodrop Express. Between pipetting steps, tips were cleaned in wash cycles using wash buffer. Plates with terminated kinase reactions were transferred to the Caliper LC3000 workstations for reading. Phosphorylated and unphosphorylated peptides were separated using the Caliper microfluidic mobilitishift technology and Kinase activities were calculated from the amounts of formed phospho-peptide.
Kinase reactions were prepared in 384 low volume plates by the following sequence:
1. 0.05 μA Compound (start with 1.8 mM in 90% DMSO/10% H2O)
2. +4.5 μl 2× peptide/ATP solution
3. +4.5 μl 2× enzyme solution
4. Incubate for 60 min at 30° C.
4. +16 μl stop/run buffer
Independent of the kinase, all reactions were done performed in 50 mM HEPES, pH 7.5, 1 mM DTT, 0.02% Tween20, 0.02% BSA, and 0.6% DMSO. For cABLT315 assay specific details were as follows: [cABLT315 kinase]=2.4 nM, [ATP]=10 uM, [peptide]=2 uM, [Mg]=10 mM. For PKCα, assay specific details were as follows: [kinase]=0.012 nM, [ATP]=17 uM, [peptide]=1 uM, [Mg]=7 mM, [Ca]=0.2 mM.

PIM1 = PIM1 (Homo sapiens, UniProt P11309); assay: KinaseGlo Pim1 ATP depletion assay; assay type: biochemical
Outline: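 2.5 nM PIM1 preincubated 15 min with compound and 40 μM BAD peptide in 50 mM HEPES pH 7.5, 5 mM MgCl2, 1 mM DTT, 0.05% BSA, 2.5% DMSO. The reaction was started with 20 μM ATP (final) and run to about 50% ATP depletion. Remaining ATP read by KinaseGlo Plus luminescence to give IC50.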

KDR kinase = KDR kinase (Homo sapiens, UniProt P35968); assay: KDR kinase inhibition assay (LanthaScreen TR-FRET); assay type: biochemical; details: TR-FRET assay
Protocol: KDR Kinase Inhibition Assay
LanthaScreen™ is the detection of Time-Resolved Fluorescence Resonance Energy Transfer (TR-FRET) using lanthanide chelates to measure interactions between various binding partners. The application of TR-FRET to assay kinase activity was first described by Mathis (1995). A TR-FRET assay was used to measure KDR kinase inhibitory activity. The assay panel was run on a Biomek FX liquid handling workstations. To the assay plates containing 50 nL compound or control solutions, 4.5 μL of buffer A (50 mM TRIS-HCl pH 7.4, 2 mM DTT, 0.02% Tween 20, 0.02 mM Na3VO4, H2O nanpure) including a generic concentration of ATP (2 μM f.c.) was added per well, followed by 4.5 μL of buffer B (4 uM ATP in Buffer A) including a generic concentration of polyEAY (50 nM f.c.), KDR kinase, and divalent cations. Final concentration of kinase and cations were: [KDR kinase]=0.38 nM, [Mg]=10 mM, [Ca]=1 mM. After 1 hour of incubation the kinase reactions were stopped by the addition of 4.5 μL of stop solution D (50 mM EDTA, 20 mM TRIS-HCl pH 7.4, 0.04% NP-40) immediately followed by 4.5 μL of buffer A (50 mM TRIS-HCl pH 7.4, 2 mM DTT, 0.02% Tween 20, 0.02 mM Na3VO4, H2O nanpure) including the Tb-labeled P-20 antibody to give a total detection volume of 18 μL. After an incubation time of 45 min in the dark, the plates were transferred into the Pherastar fluorescence reader for counting. The effect of compound on the enzymatic activity was obtained from the linear progress curves and determined from one reading (end point measurement).

Sequence of PIM1 (P11309 whole entry): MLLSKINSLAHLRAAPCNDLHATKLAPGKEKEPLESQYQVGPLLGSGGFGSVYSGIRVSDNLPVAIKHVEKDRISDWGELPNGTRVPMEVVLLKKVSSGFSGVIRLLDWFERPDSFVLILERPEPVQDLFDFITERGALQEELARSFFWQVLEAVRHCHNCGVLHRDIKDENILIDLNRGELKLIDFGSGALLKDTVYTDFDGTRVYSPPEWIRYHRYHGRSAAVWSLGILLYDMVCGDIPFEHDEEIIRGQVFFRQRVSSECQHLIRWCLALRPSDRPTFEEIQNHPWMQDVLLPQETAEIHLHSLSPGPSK
T1 sequence (Q12809 whole entry): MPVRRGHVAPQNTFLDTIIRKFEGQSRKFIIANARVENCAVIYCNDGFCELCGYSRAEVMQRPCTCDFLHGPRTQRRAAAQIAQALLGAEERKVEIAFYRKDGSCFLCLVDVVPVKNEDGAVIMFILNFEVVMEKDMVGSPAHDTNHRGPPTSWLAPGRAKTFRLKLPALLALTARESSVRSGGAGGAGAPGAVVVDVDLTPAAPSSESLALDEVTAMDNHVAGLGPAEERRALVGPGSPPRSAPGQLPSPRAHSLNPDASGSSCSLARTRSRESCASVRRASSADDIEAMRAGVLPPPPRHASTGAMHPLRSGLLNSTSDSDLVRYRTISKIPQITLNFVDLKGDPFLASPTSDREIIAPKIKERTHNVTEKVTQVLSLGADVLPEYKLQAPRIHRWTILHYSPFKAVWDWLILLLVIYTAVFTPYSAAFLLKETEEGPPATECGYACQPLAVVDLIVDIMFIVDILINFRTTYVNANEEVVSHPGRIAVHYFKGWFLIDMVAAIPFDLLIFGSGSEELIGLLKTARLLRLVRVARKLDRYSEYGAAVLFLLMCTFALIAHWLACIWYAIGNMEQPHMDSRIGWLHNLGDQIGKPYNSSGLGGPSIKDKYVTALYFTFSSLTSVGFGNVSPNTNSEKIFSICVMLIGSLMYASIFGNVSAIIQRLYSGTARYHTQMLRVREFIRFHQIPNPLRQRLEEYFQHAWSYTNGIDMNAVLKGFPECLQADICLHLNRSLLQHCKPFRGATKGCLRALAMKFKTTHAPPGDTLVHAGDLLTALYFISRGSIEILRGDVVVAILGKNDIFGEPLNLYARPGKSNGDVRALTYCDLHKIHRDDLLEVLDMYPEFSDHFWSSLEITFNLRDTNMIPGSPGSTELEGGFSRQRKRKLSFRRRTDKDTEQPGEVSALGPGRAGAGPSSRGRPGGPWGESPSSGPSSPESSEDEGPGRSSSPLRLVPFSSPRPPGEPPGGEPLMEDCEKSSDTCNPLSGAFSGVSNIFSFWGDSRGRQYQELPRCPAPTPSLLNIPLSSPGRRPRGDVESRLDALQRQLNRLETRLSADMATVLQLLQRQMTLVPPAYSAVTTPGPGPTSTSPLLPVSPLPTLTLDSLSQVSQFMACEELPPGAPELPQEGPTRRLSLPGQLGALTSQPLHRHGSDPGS
Sequence of KDR kinase (P35968 20-1356): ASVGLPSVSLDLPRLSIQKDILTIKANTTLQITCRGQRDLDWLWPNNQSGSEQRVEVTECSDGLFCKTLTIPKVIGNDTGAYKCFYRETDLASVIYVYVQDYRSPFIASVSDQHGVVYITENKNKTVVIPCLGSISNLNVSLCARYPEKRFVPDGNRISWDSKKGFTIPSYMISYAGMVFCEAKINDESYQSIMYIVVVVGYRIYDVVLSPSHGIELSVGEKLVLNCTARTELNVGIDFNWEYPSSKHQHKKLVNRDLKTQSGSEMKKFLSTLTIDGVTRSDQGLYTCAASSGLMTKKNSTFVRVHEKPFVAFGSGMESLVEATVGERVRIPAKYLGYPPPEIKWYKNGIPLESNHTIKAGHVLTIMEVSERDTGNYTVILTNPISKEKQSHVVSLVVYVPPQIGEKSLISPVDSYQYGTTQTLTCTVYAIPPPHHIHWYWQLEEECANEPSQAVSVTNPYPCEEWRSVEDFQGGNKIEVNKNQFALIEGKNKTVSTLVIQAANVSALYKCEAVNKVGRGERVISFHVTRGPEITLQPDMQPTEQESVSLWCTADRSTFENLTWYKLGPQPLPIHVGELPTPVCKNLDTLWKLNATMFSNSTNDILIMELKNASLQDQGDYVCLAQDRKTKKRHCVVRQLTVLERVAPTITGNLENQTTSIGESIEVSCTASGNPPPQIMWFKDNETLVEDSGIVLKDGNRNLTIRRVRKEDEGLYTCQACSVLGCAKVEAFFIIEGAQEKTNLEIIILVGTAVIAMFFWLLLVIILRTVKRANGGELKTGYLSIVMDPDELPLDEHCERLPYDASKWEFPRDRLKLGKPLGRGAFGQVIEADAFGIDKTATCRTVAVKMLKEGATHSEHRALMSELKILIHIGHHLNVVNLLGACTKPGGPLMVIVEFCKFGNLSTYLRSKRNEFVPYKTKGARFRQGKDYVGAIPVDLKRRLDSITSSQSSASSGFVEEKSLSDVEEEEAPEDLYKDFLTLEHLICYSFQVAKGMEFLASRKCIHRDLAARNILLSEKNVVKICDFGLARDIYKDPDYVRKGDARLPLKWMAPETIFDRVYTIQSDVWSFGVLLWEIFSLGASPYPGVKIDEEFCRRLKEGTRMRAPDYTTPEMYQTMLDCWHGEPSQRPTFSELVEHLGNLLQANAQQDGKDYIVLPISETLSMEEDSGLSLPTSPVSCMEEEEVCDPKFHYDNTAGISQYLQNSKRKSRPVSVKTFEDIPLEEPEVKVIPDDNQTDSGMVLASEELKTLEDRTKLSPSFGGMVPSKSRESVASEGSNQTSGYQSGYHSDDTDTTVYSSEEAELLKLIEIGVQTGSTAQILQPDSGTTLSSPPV

| pIC50 (cABLT315 kinase; Caliper assay) | pIC50 (KDR kinase) | Compound | pIC50 (hERG; hERG binding, dofetilide) | other results |
| --- | --- | --- | --- | --- |
| 6.96 |  | CC1(C)C[C@@H](N)C[C@H](c2ccncc2NC(=O)c2nc(-c3ccccc3)cnc2N)O1 [Example 296, 3-amino-N-(4-((2R,4S)-4-amino-6,6-dimethyltetrahydro-2H-pyran-2-yl)pyridin-3-yl)-6-phenylpyrazine-2-carboxamide] |  |  |
| 6.07 |  | CC1(C)C[C@H](N)C[C@@H](c2ccncc2NC(=O)c2nc(-c3ccccc3)cnc2N)O1 [Example 297, 3-amino-N-(4-((2S,4R)-4-amino-6,6-dimethyltetrahydro-2H-pyran-2-yl)pyridin-3-yl)-6-phenylpyrazine-2-carboxamide] |  |  |
|  | 8.15 | C[C@]1(O)[C@@H](N)C[C@H](c2ccncc2NC(=O)c2nc(-c3ccccc3)cnc2N)OC12CC2 [Example 351, 3-amino-N-(4-((5R,7S,8S)-7-amino-8-hydroxy-8-methyl-4-oxaspiro[2.5]octan-5-yl)pyridin-3-yl)-6-phenylpyrazine-2-carboxamide] |  |  |
|  | 7.55 | C[C@@]1(O)[C@H](N)C[C@@H](c2ccncc2NC(=O)c2nc(-c3ccccc3)cnc2N)OC12CC2 [Example 352, 3-amino-N-(4-((5S,7R,8R)-7-amino-8-hydroxy-8-methyl-4-oxaspiro[2.5]octan-5-yl)pyridin-3-yl)-6-phenylpyrazine-2-carboxamide] |  |  |
|  | 6.60 | C[C@]1(O)[C@H](N)C[C@H](c2ccncc2NC(=O)c2nc(-c3ccccc3)cnc2N)OC12CC2 [Example 353, 3-amino-N-(4-((5R,7R,8S)-7-amino-8-hydroxy-8-methyl-4-oxaspiro[2.5]octan-5-yl)pyridin-3-yl)-6-phenylpyrazine-2-carboxamide] |  |  |
|  | 7.21 | CC(C)(C)[C@H]1O[C@@H](c2ccncc2NC(=O)c2nc(-c3ccccc3)cnc2N)C[C@@H](N)[C@@H]1O [Example 354, 3-amino-N-(4-((2R,4R,5S,6R)-4-amino-6-tert-butyl-5-hydroxytetrahydro-2H-pyran-2-yl)pyridin-3-yl)-6-phenylpyrazine-2-carboxamide] |  |  |
|  | 5.19 | CC(C)(C)[C@@H]1O[C@H](c2ccncc2NC(=O)c2nc(-c3ccccc3)cnc2N)C[C@H](N)[C@H]1O [Example 355, 3-amino-N-(4-((2S,4S,5R,6S)-4-amino-6-tert-butyl-5-hydroxytetrahydro-2H-pyran-2-yl)pyridin-3-yl)-6-phenylpyrazine-2-carboxamide] |  |  |
|  | 7.37 | CC(C)[C@H]1O[C@@H](c2ccncc2NC(=O)c2nc(-c3ccccc3)cnc2N)C[C@@H](N)[C@@H]1O [Example 356, 3-amino-N-(4-((2R,4R,5S,6R)-4-amino-5-hydroxy-6-isopropyltetrahydro-2H-pyran-2-yl)pyridin-3-yl)-6-phenylpyrazine-2-carboxamide] |  |  |

Further lines, the molecule ahead of its results:

| Compound | pIC50 (cABLT315 kinase; Caliper assay) | pIC50 (KDR kinase) | pIC50 (hERG; hERG binding, dofetilide) | other results |
| --- | --- | --- | --- | --- |
| CC[C@]1(O)[C@H](O)C[C@H](c2ccncc2NC(=O)c2nc(-c3c(F)cccc3F)ncc2N)O[C@@H]1C [Example 143, 5-amino-2-(2,6-difluorophenyl)-N-(4-((2R,4R,5S,6R)-5-ethyl-4,5-dihydroxy-6-methyltetrahydro-2H-pyran-2-yl)pyridin-3-yl)pyrimidine-4-carboxamide] |  |  |  | pIC50 (hERG; dofetilide displacement): < 4.52; pIC50 (cABLT315 kinase): < 5.00; pIC50 (PIM1): 8.89 |
| Nc1ncc(-c2ccccc2)nc1C(=O)Nc1cnccc1[C@H]1C[C@@H](O)[C@@]2(O)CCCC[C@H]2O1 [Example 173, 3-amino-N-(4-((2R,4R,4aS,8aR)-4,4a-dihydroxyoctahydro-2H-chromen-2-yl)pyridin-3-yl)-6-phenylpyrazine-2-carboxamide] |  |  |  | pIC50 (hERG; dofetilide displacement): < 4.52; pIC50 (cABLT315 kinase): 7.15; pIC50 (PIM1): 8.66 |
| Nc1ncc(-c2ccccc2)nc1C(=O)Nc1cnccc1[C@@H]1C[C@H](O)[C@]2(O)CCCC[C@@H]2O1 [Example 176, 3-amino-N-(4-((2S,4S,4aR,8aS)-4,4a-dihydroxyoctahydro-2H-chromen-2-yl)pyridin-3-yl)-6-phenylpyrazine-2-carboxamide] |  |  |  | pIC50 (hERG; dofetilide displacement): < 4.52; pIC50 (cABLT315 kinase): 5.13; pIC50 (PIM1): 7.20 |
| O=C(Nc1cnccc1[C@H]1C[C@@H](O)[C@@]2(O)CCCC[C@H]2O1)c1c[nH]cc(-c2ccccc2)c1=O [Example 178, N-(4-((2R,4R,4aS,8aR)-4,4a-dihydroxyoctahydro-2H-chromen-2-yl)pyridin-3-yl)-4-oxo-5-phenyl-1,4-dihydropyridine-3-carboxamide] |  |  |  | pIC50 (hERG; dofetilide displacement): < 4.52; pIC50 (cABLT315 kinase): < 5.00; pIC50 (PIM1): 6.81 |
| C[C@H]1O[C@@H](c2ccncc2NC(=O)c2ccc(F)c(-c3c(F)cccc3F)n2)C[C@@H](N)[C@]1(C)O [Example 219, N-(4-((2R,4R,5S,6R)-4-amino-5-hydroxy-5,6-dimethyltetrahydro-2H-pyran-2-yl)pyridin-3-yl)-6-(2,6-difluorophenyl)-5-fluoropicolinamide] | < 5.00 |  | 4.80 |  |
| N[C@@H]1C[C@H](c2ccncc2NC(=O)c2ccc(F)c(-c3c(F)cccc3F)n2)O[C@@H]2CCC[C@H]12 [Example 224, N-(4-((2R,4R,4aR,7aR)-4-aminooctahydrocyclopenta[b]pyran-2-yl)pyridin-3-yl)-6-(2,6-difluorophenyl)-5-fluoropicolinamide] | < 5.00 |  | 5.70 |  |
| N[C@H]1C[C@@H](c2ccncc2NC(=O)c2csc(-c3c(F)cccc3F)n2)O[C@H]2CCC[C@H]21 [Example 230, N-(4-((2S,4S,4aS,7aS)-4-aminooctahydrocyclopenta[b]pyran-2-yl)pyridin-3-yl)-2-(2,6-difluorophenyl)thiazole-4-carboxamide] | < 5.00 |  | 5.40 |  |
| CC[C@]1(O)[C@H](N)C[C@H](c2ccncc2NC(=O)c2ccc(F)c(-c3c(F)cccc3F)n2)O[C@@H]1C [Example 232, N-(4-((2R,4R,5S,6R)-4-amino-5-ethyl-5-hydroxy-6-methyltetrahydro-2H-pyran-2-yl)pyridin-3-yl)-6-(2,6-difluorophenyl)-5-fluoropicolinamide] | < 5.00 |  | 5.30 |  |
| Nc1cc(F)c(-c2c(F)cccc2F)nc1C(=O)Nc1cnccc1[C@H]1C[C@@H](N)[C@@]2(O)CCCC[C@H]2O1 [Example 238, 3-amino-N-(4-((2R,4R,4aS,8aR)-4-amino-4a-hydroxyoctahydro-2H-chromen-2-yl)pyridin-3-yl)-6-(2,6-difluorophenyl)-5-fluoropicolinamide] | < 5.00 |  | 5.40 |  |
| COc1cc(F)c(-c2nc(C(=O)Nc3cnccc3[C@H]3C[C@@H](N)[C@](C)(O)[C@@H](C)O3)ccc2F)c(F)c1 [Example 242, N-(4-((2R,4R,5S,6R)-4-amino-5-hydroxy-5,6-dimethyltetrahydro-2H-pyran-2-yl)pyridin-3-yl)-6-(2,6-difluoro-4-methoxyphenyl)-5-fluoropicolinamide] | < 5.00 |  | 5.22 |  |
